Data published in article doi:10.1101/2024.08.13.607785v1 (biorxiv, 2024).
Read-outs that look alike come from different tables or passages of the source.

What was measured:
Assay in all cases: biochemical
Design in all cases: species or system human cell line lysate
[1] = target: Serine/threonine-protein kinase MARK2 ; MARK2 ; Q7KZI7 (Homo sapiens, UniProt Q7KZI7)
[2] = target: Mitogen-activated protein kinase kinase kinase 1 ; MAP3K1 ; Q13233 (Homo sapiens, UniProt Q13233)
[3] = target: TGF-beta receptor type-1 ; TGFBR1 ; P36897 (Homo sapiens, UniProt P36897)
[4] = target: Vascular endothelial growth factor receptor 3 ; FLT4 ; P35916 (Homo sapiens, UniProt P35916)
[5] = target: Serine/threonine-protein kinase ATR ; ATR ; Q13535 (Homo sapiens, UniProt Q13535)
[6] = target: Mitogen-activated protein kinase kinase kinase 9 ; MAP3K9 ; P80192 (Homo sapiens, UniProt P80192)
[7] = target: Ephrin type-A receptor 2 ; EPHA2 ; P29317 (Homo sapiens, UniProt P29317)
[8] = target: Focal adhesion kinase 1 ; PTK2 ; Q05397 (Homo sapiens, UniProt Q05397)
[9] = target: Calcium/calmodulin-dependent protein kinase type II subunit beta ; CAMK2B ; Q13554 (Homo sapiens, UniProt Q13554)
[10] = target: Isoform 2 of Proto-oncogene tyrosine-protein kinase Src ; SRC ; P12931-2 (Homo sapiens, UniProt P12931)
[11] = target: Ephrin type-A receptor 5 ; EPHA5 ; P54756 (Homo sapiens, UniProt P54756)
[12] = target: Dual specificity protein kinase CLK3 ; CLK3 ; P49761 (Homo sapiens, UniProt P49761)
[13] = target: T1, Cyclin-G-associated kinase ; GAK ; O14976 (Homo sapiens, UniProt O14976)
T1 sequence (O14976 1-1311): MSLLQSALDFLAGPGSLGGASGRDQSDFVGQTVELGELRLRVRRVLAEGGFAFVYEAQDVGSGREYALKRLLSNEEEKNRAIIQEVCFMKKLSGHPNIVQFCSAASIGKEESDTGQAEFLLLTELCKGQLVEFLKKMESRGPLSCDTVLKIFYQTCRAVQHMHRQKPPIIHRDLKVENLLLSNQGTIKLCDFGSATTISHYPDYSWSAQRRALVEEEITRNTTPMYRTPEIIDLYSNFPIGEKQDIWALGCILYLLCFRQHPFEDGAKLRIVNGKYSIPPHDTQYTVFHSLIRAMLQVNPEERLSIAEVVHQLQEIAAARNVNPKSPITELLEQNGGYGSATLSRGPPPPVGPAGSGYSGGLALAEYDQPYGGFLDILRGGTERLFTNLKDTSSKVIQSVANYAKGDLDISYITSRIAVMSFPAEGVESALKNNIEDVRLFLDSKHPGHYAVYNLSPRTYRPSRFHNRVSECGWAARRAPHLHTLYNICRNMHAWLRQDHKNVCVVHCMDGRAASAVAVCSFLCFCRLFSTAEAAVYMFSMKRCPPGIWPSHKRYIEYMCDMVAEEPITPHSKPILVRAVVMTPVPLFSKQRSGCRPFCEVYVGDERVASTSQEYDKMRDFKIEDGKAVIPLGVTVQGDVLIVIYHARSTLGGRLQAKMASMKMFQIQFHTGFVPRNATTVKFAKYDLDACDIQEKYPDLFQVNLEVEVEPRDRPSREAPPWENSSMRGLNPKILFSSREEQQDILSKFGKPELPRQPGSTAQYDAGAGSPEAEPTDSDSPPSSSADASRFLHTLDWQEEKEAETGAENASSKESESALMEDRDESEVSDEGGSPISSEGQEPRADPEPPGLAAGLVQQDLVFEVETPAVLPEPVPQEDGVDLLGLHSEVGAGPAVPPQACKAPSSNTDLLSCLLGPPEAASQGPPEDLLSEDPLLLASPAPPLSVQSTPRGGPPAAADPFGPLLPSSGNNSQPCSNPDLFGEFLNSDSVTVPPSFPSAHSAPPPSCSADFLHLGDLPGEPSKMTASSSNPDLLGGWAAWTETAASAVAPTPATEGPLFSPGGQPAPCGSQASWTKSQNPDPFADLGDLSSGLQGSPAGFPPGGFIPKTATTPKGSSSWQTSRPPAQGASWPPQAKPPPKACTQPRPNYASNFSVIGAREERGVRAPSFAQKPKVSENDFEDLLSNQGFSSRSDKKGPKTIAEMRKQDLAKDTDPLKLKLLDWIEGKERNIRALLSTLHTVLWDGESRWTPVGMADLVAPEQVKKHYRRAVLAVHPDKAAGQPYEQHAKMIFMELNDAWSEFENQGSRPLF

[14] = target: Mitogen-activated protein kinase kinase kinase 15 ; MAP3K15 ; Q6ZN16 (Homo sapiens, UniProt Q6ZN16)
[15] = read-out: BAY-1143572 (10 µM) / %Intensity relative to DMSO
[16] = read-out: BAY-1251152 (10 µM) / %Intensity relative to DMSO

Chain of Mitogen-activated protein kinase kinase kinase 9 ; MAP3K9 ; P80192 (P80192 whole entry): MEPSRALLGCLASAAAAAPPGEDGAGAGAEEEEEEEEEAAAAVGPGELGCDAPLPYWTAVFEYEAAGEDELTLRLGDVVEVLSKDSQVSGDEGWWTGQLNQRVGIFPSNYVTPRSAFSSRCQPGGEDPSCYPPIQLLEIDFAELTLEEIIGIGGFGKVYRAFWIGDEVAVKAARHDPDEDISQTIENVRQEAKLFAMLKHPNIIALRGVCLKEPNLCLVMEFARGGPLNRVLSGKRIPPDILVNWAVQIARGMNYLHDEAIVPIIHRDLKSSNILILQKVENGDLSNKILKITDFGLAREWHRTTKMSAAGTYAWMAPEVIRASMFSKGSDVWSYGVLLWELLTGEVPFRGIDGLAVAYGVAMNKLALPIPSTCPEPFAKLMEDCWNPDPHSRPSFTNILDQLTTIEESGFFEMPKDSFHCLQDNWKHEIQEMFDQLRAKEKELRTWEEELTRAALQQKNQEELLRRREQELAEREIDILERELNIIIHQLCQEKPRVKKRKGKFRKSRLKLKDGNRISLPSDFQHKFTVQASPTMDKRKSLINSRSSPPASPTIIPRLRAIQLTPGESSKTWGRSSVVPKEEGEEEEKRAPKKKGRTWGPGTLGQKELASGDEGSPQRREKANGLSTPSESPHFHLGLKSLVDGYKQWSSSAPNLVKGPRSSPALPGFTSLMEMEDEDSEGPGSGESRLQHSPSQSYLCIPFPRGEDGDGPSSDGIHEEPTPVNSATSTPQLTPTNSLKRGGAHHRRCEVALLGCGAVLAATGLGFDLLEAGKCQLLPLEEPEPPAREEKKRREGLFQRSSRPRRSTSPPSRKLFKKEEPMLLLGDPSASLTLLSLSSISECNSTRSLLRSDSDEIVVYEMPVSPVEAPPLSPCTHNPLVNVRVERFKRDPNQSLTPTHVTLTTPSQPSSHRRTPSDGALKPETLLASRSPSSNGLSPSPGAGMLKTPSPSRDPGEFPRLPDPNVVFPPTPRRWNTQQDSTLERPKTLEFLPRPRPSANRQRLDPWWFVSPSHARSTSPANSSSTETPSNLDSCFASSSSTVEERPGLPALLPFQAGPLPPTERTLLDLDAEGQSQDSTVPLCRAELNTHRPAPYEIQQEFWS
Chain of Ephrin type-A receptor 2 ; EPHA2 ; P29317 (P29317 whole entry): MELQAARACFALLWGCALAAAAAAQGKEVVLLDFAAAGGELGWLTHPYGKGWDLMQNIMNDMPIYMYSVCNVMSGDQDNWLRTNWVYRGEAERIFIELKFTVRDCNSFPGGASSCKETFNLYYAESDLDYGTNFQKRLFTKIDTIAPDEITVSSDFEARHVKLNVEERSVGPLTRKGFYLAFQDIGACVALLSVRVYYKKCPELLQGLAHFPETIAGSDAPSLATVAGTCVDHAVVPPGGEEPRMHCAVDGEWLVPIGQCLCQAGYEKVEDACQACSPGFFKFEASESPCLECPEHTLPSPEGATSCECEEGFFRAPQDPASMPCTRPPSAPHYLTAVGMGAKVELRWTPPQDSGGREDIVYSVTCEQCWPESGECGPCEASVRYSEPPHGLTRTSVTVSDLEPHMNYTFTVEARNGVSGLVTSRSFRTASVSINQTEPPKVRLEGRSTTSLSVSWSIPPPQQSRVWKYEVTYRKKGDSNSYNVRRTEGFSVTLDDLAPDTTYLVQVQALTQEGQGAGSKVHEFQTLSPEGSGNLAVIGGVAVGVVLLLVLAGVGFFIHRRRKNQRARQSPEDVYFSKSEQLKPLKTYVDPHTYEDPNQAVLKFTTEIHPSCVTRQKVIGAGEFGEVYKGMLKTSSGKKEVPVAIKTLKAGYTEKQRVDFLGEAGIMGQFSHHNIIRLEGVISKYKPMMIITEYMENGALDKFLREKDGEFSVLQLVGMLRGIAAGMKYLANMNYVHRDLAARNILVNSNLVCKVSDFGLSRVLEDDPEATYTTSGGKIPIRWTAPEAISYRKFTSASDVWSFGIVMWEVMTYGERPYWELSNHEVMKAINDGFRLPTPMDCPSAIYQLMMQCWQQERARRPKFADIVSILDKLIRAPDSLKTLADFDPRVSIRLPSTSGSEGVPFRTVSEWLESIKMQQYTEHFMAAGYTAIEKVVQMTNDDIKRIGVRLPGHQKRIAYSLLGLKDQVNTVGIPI
Chain of Vascular endothelial growth factor receptor 3 ; FLT4 ; P35916 (P35916 whole entry): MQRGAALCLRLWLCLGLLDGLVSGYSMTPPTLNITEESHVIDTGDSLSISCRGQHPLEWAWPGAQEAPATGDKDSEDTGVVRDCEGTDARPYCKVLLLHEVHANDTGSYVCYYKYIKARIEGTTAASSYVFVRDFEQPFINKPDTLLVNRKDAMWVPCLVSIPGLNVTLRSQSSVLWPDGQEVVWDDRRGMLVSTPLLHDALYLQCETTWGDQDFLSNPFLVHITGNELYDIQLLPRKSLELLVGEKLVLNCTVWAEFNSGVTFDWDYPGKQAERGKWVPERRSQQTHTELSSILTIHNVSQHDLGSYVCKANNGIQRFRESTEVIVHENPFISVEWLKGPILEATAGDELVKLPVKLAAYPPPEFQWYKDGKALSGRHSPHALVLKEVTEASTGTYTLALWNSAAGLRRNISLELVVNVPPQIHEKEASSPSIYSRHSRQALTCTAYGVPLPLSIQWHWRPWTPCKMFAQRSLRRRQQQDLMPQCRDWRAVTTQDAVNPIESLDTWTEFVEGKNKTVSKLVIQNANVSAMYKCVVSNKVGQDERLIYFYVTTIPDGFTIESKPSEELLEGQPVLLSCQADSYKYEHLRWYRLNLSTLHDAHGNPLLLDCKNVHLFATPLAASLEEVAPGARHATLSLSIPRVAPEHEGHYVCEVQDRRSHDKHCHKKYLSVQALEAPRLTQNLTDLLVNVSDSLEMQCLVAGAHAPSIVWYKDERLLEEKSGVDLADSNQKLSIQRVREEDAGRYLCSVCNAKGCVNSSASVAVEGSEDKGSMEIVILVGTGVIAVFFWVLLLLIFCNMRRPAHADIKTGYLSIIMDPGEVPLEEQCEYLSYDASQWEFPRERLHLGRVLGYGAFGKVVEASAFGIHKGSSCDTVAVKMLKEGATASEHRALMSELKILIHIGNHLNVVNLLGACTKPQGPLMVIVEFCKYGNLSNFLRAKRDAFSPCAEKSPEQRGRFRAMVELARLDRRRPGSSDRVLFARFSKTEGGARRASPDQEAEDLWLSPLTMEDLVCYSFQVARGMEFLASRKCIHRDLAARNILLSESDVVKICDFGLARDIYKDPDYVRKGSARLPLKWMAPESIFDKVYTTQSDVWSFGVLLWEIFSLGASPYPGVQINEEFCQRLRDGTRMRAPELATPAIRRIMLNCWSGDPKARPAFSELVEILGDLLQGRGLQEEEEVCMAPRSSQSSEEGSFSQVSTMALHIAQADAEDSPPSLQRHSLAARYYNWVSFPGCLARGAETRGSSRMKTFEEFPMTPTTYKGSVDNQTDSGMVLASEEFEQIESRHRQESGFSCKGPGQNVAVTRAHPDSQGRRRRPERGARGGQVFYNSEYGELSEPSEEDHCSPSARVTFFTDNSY
Chain of Mitogen-activated protein kinase kinase kinase 15 ; MAP3K15 ; Q6ZN16 (Q6ZN16 whole entry): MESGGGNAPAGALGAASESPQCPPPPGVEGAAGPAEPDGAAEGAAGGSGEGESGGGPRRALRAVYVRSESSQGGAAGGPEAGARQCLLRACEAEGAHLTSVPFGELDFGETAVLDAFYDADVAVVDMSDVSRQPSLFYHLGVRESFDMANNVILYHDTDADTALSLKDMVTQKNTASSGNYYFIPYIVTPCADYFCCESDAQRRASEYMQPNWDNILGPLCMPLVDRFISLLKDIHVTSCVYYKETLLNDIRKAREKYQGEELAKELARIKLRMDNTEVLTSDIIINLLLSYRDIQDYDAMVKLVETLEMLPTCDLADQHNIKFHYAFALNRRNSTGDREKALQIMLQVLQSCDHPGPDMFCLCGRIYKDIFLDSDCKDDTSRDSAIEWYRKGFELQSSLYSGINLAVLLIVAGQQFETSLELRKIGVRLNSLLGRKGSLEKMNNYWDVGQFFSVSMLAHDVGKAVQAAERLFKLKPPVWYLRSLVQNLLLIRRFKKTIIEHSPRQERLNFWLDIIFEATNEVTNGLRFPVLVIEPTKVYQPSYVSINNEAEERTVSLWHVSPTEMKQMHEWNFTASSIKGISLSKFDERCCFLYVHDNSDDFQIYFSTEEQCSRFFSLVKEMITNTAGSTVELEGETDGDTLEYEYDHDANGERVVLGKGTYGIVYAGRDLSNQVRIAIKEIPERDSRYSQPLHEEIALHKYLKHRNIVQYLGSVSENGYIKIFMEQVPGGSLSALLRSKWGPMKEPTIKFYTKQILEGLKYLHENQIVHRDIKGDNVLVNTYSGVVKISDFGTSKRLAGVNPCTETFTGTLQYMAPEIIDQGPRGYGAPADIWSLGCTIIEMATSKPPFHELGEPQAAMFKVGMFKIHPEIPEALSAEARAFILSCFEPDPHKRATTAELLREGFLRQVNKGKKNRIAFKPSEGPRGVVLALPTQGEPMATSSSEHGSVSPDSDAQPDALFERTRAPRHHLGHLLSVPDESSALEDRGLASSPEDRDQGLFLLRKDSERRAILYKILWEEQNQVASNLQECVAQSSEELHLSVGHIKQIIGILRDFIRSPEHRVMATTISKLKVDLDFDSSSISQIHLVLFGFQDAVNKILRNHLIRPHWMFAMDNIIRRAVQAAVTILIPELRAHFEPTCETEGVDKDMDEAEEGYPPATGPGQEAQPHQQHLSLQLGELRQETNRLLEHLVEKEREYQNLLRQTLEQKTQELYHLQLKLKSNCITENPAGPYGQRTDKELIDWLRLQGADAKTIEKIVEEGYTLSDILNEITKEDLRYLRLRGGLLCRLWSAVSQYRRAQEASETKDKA

## COc1cc(F)ccc1-c1ncnc(Nc2cccc(C[S@](C)(=N)=O)c2)n1 [BAY-1143572]
[1]; [15]
  remaining activity at 10 µM: 110%
[2]; [15]
  remaining activity at 10 µM: 73.3%
[3]; [15]
  remaining activity at 10 µM: 115%
[4]; [15]
  remaining activity at 10 µM: 115%
[5]; [15]
  remaining activity at 10 µM: 109%
[6]; [15]
  remaining activity at 10 µM: 87.2%
[7]; [15]
  remaining activity at 10 µM: 84.9%
[8]; [15]
  remaining activity at 10 µM: 102%
[9]; [15]
  remaining activity at 10 µM: 105%
[10]; [15]
  remaining activity at 10 µM: 102%
[11]; [15]
  remaining activity at 10 µM: 99.7%
[12]; [15]
  remaining activity at 10 µM: 113%
[13]; [15]
  remaining activity at 10 µM: 96.6%
[14]; [15]
  remaining activity at 10 µM: 91.7%

## COc1cc(F)ccc1-c1cc(Nc2cc(CS(C)(=N)=O)ccn2)ncc1F (stereo not shown) [BAY-1251152]
[1]; [16]
  remaining activity at 10 µM: 103%
[2]; [16]
  remaining activity at 10 µM: 82.4%
[3]; [16]
  remaining activity at 10 µM: 114%
[4]; [16]
  remaining activity at 10 µM: 104%
[5]; [16]
  remaining activity at 10 µM: 70.1%
[6]; [16]
  remaining activity at 10 µM: 104%
[7]; [16]
  remaining activity at 10 µM: 103%
[8]; [16]
  remaining activity at 10 µM: 99.3%
[9]; [16]
  remaining activity at 10 µM: 98.2%
[10]; [16]
  remaining activity at 10 µM: 112%
[11]; [16]
  remaining activity at 10 µM: 109%
[12]; [16]
  remaining activity at 10 µM: 115%
[13]; [16]
  remaining activity at 10 µM: 100%
[14]; [16]
  remaining activity at 10 µM: 95%
